Here are results for two compounds from US20220387303A1, “Vaginal Drug Delivery Device” (THE REGENTS OF THE UNIVERSITY OF CALIFORNIA, priority 2019, published 2022).

Converted amounts (≈) assume the structure as drawn.

A short description of data set [1]: In vitro cumulative drug release from devices in PBS (pH 7.4) at 37° C. under gentle shaking. In kind it is physicochemical.
Data set [2] relates to Candida albicans (ATCC 18804). Kind of data set: Liquid assay, inhibition of yeast growth in Sabouraud dextrose broth. In kind it is cell-based. The note with it: for Optical Density (OD600): 12 h; for Cell Density: converted from OD600. On the procedure:
Liquid assay was also used to further characterize the […] properties. Candida albicans (ATCC 18804) was cultured in Sabouraud dextrose broth with a starting concentration of 0.08 OD600 value. After 12 h, optical density was measured using spectrometer at 600 nm wavelength. Then, conversion to cell density is using the approximation 0.5 equals 1.5×10^8 CFU/ml.

Take `Clc1ccccc1C(c1ccccc1)(c1ccccc1)n1ccnc1` [Clotrimazole]: the sustained release duration result in data set [1] (clotrimazole from PLGA device) is reported as “up to 10 days”. In addition, the IC50 in data set [2] (Candida albicans, ATCC18804, after 12 h, starting 0.08 OD600, read-out: IC50 (half maximal inhibitory concentration)) is 3.3 µg/mL (≈ 9.57 µM). Also, the “Optical Density (OD600)” value in data set [2] (Clotrimazole Conc. 0.37 μg/ml) is listed as 0.9; in data set [2] (Clotrimazole Conc. 1.1 μg/ml), 0.8; in data set [2] (Clotrimazole Conc. 3.3 μg/ml) it was 0.7; in data set [2] (Clotrimazole Conc. 10 μg/ml), 0.5. Further, the “Cell Density” value is 2.7e+08 mL⁻¹ in data set [2] (Clotrimazole Conc. 0.37 μg/ml), 2.4e+08 mL⁻¹ in data set [2] (Clotrimazole Conc. 1.1 μg/ml), 2.1e+08 mL⁻¹ in data set [2] (Clotrimazole Conc. 3.3 μg/ml) and 1.5e+08 mL⁻¹ in data set [2] (Clotrimazole Conc. 10 μg/ml).
On to `CC(=O)[C@H]1CC[C@H]2[C@@H]3CCC4=CC(=O)CC[C@]4(C)[C@H]3CC[C@]12C` [progesterone], for which the “prolonged and sustained release of hormone drugs, duration” value in data set [1] (released from device) is listed as “more than two months”.
